In the test the test system is RAW 264.7 cells. The experiment in a line: Quantitative cell-permeability of FITC-labeled aMTD- or rPeptide-fused CRA recombinant proteins (flow cytometry). Type of test: cell-based. As to conditions: for Relative Ratio to aMTD AVE: cell-permeability of rPeptide-fused CRA recombinant protein relative to average of 240 aMTDs. An excerpt: The aMTDs and rPeptides were fluorescently labeled and compared based on the critical factors for cell-permeability by using flow cytometry and confocal laser scanning microscopy (FIGS. 5 to 8). The cellular uptake of the peptide-fused non-functional cargo recombinant proteins could quantitatively be evaluated in flow cytometry, while confocal laser scanning microscopy allows intracellular uptake to be assessed visually. The analysis included recombinant proteins fused to a negative control [rP38] that has opposite characteristics (hydrophilic and aromatic sequence: […] NO: 952)) to the aMTDs (hydrophobic and aliphatic sequences). Relative cell-permeability (relative fold) of aMTDs to the negative control was also analyzed (Table 23 and FIG. 9). […] RAW 264.7 cells were treated with 10 μM FITC-labeled recombinant proteins for 1 hour at 37° C., washed three times with cold PBS, treated with 0.25% tripsin/EDTA (Sigma-Aldrich, St. Louis, Mo.) for 20 minutes at 37° C. to remove cell-surface bound proteins. Cell-permeability of these recombinant proteins were analyzed by flow cytometry (Guava, Millipore, Darmstadt, Germany) using the FlowJo cytometric analysis software (FIGS. 5 to 6).
Background: Flow cytometry measures light scatter and fluorescence of single cells or particles in a stream.

Where [1] appears, read: cell-permeability of aMTD-fused CRA recombinant protein relative to negative control (A: rP38).
[2] abbreviates: cell-permeability of aMTD-fused CRA recombinant protein relative to reference CPP (B: MTM12).
Where [3] appears, read: cell-permeability of aMTD-fused CRA recombinant protein relative to reference CPP (C: MTD85).
Where [4] appears, read: cell-permeability relative to negative control rP38 (A type), aMTD-fused CRA recombinant protein, 10 μM FITC-labeled, 1 hour, 37° C., RAW 264.7 cells.
Where [5] appears, read: cell-permeability relative to reference CPP MTD85 (C type), aMTD-fused CRA recombinant protein, 10 μM FITC-labeled, 1 hour, 37° C., RAW 264.7 cells.
[6] abbreviates: cell-permeability relative to reference CPP MTM12 (B type), aMTD-fused CRA recombinant protein, 10 μM FITC-labeled, 1 hour, 37° C., RAW 264.7 cells.
Setting [7] is: 10 μM FITC-labeled, 1 hour, 37° C., RAW 264.7 cells.

With “141 (AVIVLPALAVAP; Amino acid Sequence of aMTD141) [compound 141]”, the “Relative Ratio (Fold) A” value under setting [1] was found to be 9.4 Fold. Also, under setting [2], the “Relative Ratio (Fold) B” value came to 6.3 Fold. In addition, the “Relative Ratio (Fold) C” value under setting [3] was 3.2 Fold.

On to “143 (AVLAVPAVLVAP; Amino acid Sequence of aMTD143) [compound 143]”, for which the “Relative Ratio (Fold) A” value under setting [4] was found to be 3.3 Fold. Further, under setting [5], the “Relative Ratio (Fold) C” value is reported as 1.1 Fold. For the same substance, the “Relative Ratio (Fold) B” value under setting [6] came to 2.2 Fold.

Turning to “145 (LLAVVPAVALAP; Amino acid Sequence of aMTD145) [compound 145]”, under setting [1], the “Relative Ratio (Fold) A” value was found to be 9.5 Fold. Also, under setting [2], the “Relative Ratio (Fold) B” value is 6.3 Fold. Moreover, under setting [3], the “Relative Ratio (Fold) C” value is recorded as 3.2 Fold.

On to “161 (AVIALPALIAAP; Amino acid Sequence of aMTD161) [compound 161]”, for which the “Relative Ratio (Fold) A” value under setting [1] is on record as 34.5 Fold. Besides, the “Relative Ratio (Fold) B” value under setting [2] worked out at 23.0 Fold. Also, the “Relative Ratio (Fold) C” value under setting [3] is recorded as 11.6 Fold.

On to “167 (VAIAIPAALAIP; Amino acid Sequence of rPeptide ID 167) [compound 167]”, for which, under setting [7], the “Relative Ratio to aMTD AVE” value is on record as 0.50.

On to “182 (ALIAPVVALVAP; Amino acid Sequence of aMTD182) [compound 182]”, for which the “Relative Ratio (Fold) A” value under setting [4] stood at 4.0 Fold. Besides, the “Relative Ratio (Fold) C” value under setting [5] was 1.4 Fold. Besides, the “Relative Ratio (Fold) B” value under setting [6] is recorded as 2.7 Fold.

In the case of “183 (LLAAPVVIALAP; Amino acid Sequence of aMTD183) [compound 183]”, the “Relative Ratio (Fold) A” value under setting [4] is recorded as 6.0 Fold. Besides, the “Relative Ratio (Fold) C” value under setting [5] is reported as 2.0 Fold. In addition, the “Relative Ratio (Fold) B” value under setting [6] is listed as 4.0 Fold.

In the case of “184 (LAAIVPAIIAVP; Amino acid Sequence of aMTD184) [compound 184]”, the “Relative Ratio (Fold) A” value under setting [4] worked out at 4.8 Fold. Moreover, the “Relative Ratio (Fold) C” value under setting [5] is 1.6 Fold. Under setting [6], the “Relative Ratio (Fold) B” value amounted to 3.2 Fold.

As for “185 (AALVLPLIIAAP; Amino acid Sequence of aMTD185) [compound 185]”, under setting [1], the “Relative Ratio (Fold) A” value was determined as 8.5 Fold. Also, the “Relative Ratio (Fold) B” value under setting [2] is 5.7 Fold. The “Relative Ratio (Fold) C” value under setting [3] is on record as 2.9 Fold.

On to “201 (LALAVPALAALP; Amino acid Sequence of aMTD201) [compound 201]”, for which the “Relative Ratio (Fold) A” value under setting [4] is 4.2 Fold. Under setting [5], the “Relative Ratio (Fold) C” value is on record as 1.4 Fold. The “Relative Ratio (Fold) B” value under setting [6] was 2.8 Fold.

“221 (AAILAPIVALAP; Amino acid Sequence of aMTD221) [compound 221]”: the “Relative Ratio (Fold) A” value under setting [1] was 10.9 Fold. Also, the “Relative Ratio (Fold) B” value under setting [2] was 7.3 Fold. Further, the “Relative Ratio (Fold) C” value under setting [3] came out at 3.7 Fold.

Consider “222 (ALLIAPAAVIAP; Amino acid Sequence of aMTD222) [compound 222]”, for which the “Relative Ratio (Fold) A” value under setting [1] came out at 32.6 Fold. Also, the “Relative Ratio (Fold) B” value under setting [2] is reported as 21.7 Fold. Moreover, under setting [3], the “Relative Ratio (Fold) C” value came out at 11.0 Fold.

Turning to “223 (AILAVPIAVVAP; Amino acid Sequence of aMTD223) [compound 223]”, the “Relative Ratio (Fold) A” value under setting [1] was 33.0 Fold. Also, the “Relative Ratio (Fold) B” value under setting [2] was 22.1 Fold. Under setting [3], the “Relative Ratio (Fold) C” value stood at 11.2 Fold.

Turning to “225 (VAALLPAAAVLP; Amino acid Sequence of aMTD225) [compound 225]”, the “Relative Ratio (Fold) A” value under setting [1] came to 18.3 Fold. In addition, the “Relative Ratio (Fold) B” value under setting [2] is on record as 12.2 Fold. Moreover, the “Relative Ratio (Fold) C” value under setting [3] turned out to be 6.2 Fold.

In the case of “227 (LAAIVPIAAAVP; Amino acid Sequence of rPeptide ID 227) [compound 227]”, under setting [7], the “Relative Ratio to aMTD AVE” value is 0.08.

For the substance “241 (AAAVVPVLLVAP; Amino acid Sequence of aMTD241) [compound 241]”, the “Relative Ratio (Fold) A” value under setting [1] is 16.6 Fold. For the same substance, the “Relative Ratio (Fold) B” value under setting [2] was 11.0 Fold. Also, the “Relative Ratio (Fold) C” value under setting [3] is 5.6 Fold. Besides, the “Relative Ratio to aMTD AVE” value under setting [7] is listed as 0.33.

“242 (AALLVPALVAAP; Amino acid Sequence of aMTD242) [compound 242]”: under setting [1], the “Relative Ratio (Fold) A” value was 14.6 Fold. Moreover, under setting [2], the “Relative Ratio (Fold) B” value was determined as 9.7 Fold. The “Relative Ratio (Fold) C” value under setting [3] is listed as 4.9 Fold.

Turning to “243 (AAVLLPVALAAP; Amino acid Sequence of aMTD243) [compound 243]”, the “Relative Ratio (Fold) A” value under setting [4] turned out to be 5.9 Fold. The “Relative Ratio (Fold) C” value under setting [5] was found to be 2.0 Fold. In addition, the “Relative Ratio (Fold) B” value under setting [6] is listed as 3.9 Fold.

“245 (AAALAPVLALVP; Amino acid Sequence of aMTD245) [compound 245]”: under setting [1], the “Relative Ratio (Fold) A” value turned out to be 7.5 Fold. Also, the “Relative Ratio (Fold) B” value under setting [2] worked out at 5.0 Fold. Moreover, the “Relative Ratio (Fold) C” value under setting [3] stood at 2.5 Fold.

For “261 (LVLVPLLAAAAP; Amino acid Sequence of aMTD261) [compound 261]”, under setting [1], the “Relative Ratio (Fold) A” value was 18.5 Fold. The “Relative Ratio (Fold) B” value under setting [2] is reported as 12.3 Fold. Also, the “Relative Ratio (Fold) C” value under setting [3] is 6.2 Fold.

As to “262 (ALIAVPAIIVAP; Amino acid Sequence of aMTD262) [compound 262]”, the “Relative Ratio (Fold) A” value under setting [4] came out at 5.5 Fold. Moreover, the “Relative Ratio (Fold) C” value under setting [5] was found to be 1.9 Fold. For the same substance, the “Relative Ratio (Fold) B” value under setting [6] is listed as 3.7 Fold.

On to “263 (ALAVIPAAAILP; Amino acid Sequence of aMTD263) [compound 263]”, for which the “Relative Ratio (Fold) A” value under setting [1] was determined as 9.0 Fold. Moreover, under setting [2], the “Relative Ratio (Fold) B” value is recorded as 6.0 Fold. Besides, the “Relative Ratio (Fold) C” value under setting [3] is 3.0 Fold.

Turning to “264 (LAAAPVVIVIAP; Amino acid Sequence of aMTD264) [compound 264]”, the “Relative Ratio (Fold) A” value under setting [1] is on record as 18.2 Fold and the “Relative Ratio (Fold) A” value (relative cell-permeability of aMTD vs reference A (not defined)) amounted to 18.2 Fold. Also, the “Relative Ratio (Fold) B” value reads like this: under setting [2], 12.1 Fold; (relative cell-permeability of aMTD vs reference CPP B: MTM12) 12.1 Fold. In addition, the “Relative Ratio (Fold) C” value is recorded as 6.1 Fold under setting [3] and 6.1 Fold (relative cell-permeability of aMTD vs reference CPP C: MTD85).

On to “265 (VLAIAPLLAAVP; Amino acid Sequence of aMTD265) [compound 265]”, for which the “Relative Ratio (Fold) A” value under setting [4] turned out to be 6.0 Fold. For the same substance, the “Relative Ratio (Fold) C” value under setting [5] turned out to be 2.0 Fold. The “Relative Ratio (Fold) B” value under setting [6] worked out at 4.0 Fold.

With “281 (ALIVLPAAVAVP; Amino acid Sequence of aMTD281) [compound 281]”, the “Relative Ratio (Fold) A” value is, setting by setting: under setting [1], 13.3 Fold; under setting [4], 13.3 Fold. For the same substance, the “Relative Ratio (Fold) B” value reads like this: under setting [2], 8.9 Fold; under setting [6], 8.9 Fold. Moreover, the “Relative Ratio (Fold) C” value is, setting by setting: under setting [3], 4.5 Fold; under setting [5], 4.5 Fold.

As to “282 (VLAVAPALIVAP; Amino acid Sequence of aMTD282) [compound 282]”, the “Relative Ratio (Fold) A” value under setting [1] came out at 11.8 Fold. Further, under setting [2], the “Relative Ratio (Fold) B” value is reported as 7.9 Fold. For the same substance, under setting [3], the “Relative Ratio (Fold) C” value is reported as 4.0 Fold.

“283 (AALLAPALIVAP; Amino acid Sequence of aMTD283) [compound 283]”: the “Relative Ratio (Fold) A” value under setting [4] is 3.1 Fold. Besides, under setting [5], the “Relative Ratio (Fold) C” value is on record as 1.0 Fold. In addition, the “Relative Ratio (Fold) B” value under setting [6] came out at 2.0 Fold.

Turning to “284 (ALIAPAVALIVP; Amino acid Sequence of aMTD284) [compound 284]”, under setting [4], the “Relative Ratio (Fold) A” value stood at 2.8 Fold. Further, the “Relative Ratio (Fold) C” value under setting [5] is given as 0.9 Fold. The “Relative Ratio (Fold) B” value under setting [6] stood at 1.8 Fold.

In the case of “285 (AIVLLPAAVVAP; Amino acid Sequence of aMTD285) [compound 285]”, the “Relative Ratio (Fold) A” value under setting [1] is reported as 13.3 Fold. The “Relative Ratio (Fold) B” value under setting [2] was 9.9 Fold. Further, the “Relative Ratio (Fold) C” value under setting [3] was determined as 4.5 Fold.

For “301 (VIAAPVLAVLAP; Amino acid Sequence of aMTD301) [compound 301]”, the “Relative Ratio (Fold) A” value under setting [4] worked out at 6.0 Fold. Besides, the “Relative Ratio (Fold) C” value under setting [5] is reported as 2.0 Fold. Further, the “Relative Ratio (Fold) B” value under setting [6] was 4.0 Fold.

As to “302 (LALAPALALLAP; Amino acid Sequence of aMTD302) [compound 302]”, the “Relative Ratio (Fold) A” value under setting [1] is 10.2 Fold. In addition, under setting [2], the “Relative Ratio (Fold) B” value stood at 6.8 Fold. The “Relative Ratio (Fold) C” value under setting [3] was determined as 3.4 Fold.

As to “304 (AIILAPIAAIAP; Amino acid Sequence of aMTD304) [compound 304]”, the “Relative Ratio (Fold) A” value under setting [4] stood at 4.4 Fold. Further, the “Relative Ratio (Fold) C” value under setting [5] was 1.5 Fold. The “Relative Ratio (Fold) B” value under setting [6] is listed as 3.0 Fold.

“305 (IALAAPILLAAP; Amino acid Sequence of aMTD305) [compound 305]”: the “Relative Ratio (Fold) A” value under setting [4] stood at 4.8 Fold. Further, the “Relative Ratio (Fold) C” value under setting [5] was found to be 1.6 Fold. The “Relative Ratio (Fold) B” value under setting [6] is 3.2 Fold.

(Values after US10385103B2, “Cell-permeable (ICP)-SOCS3 recombinant protein and uses thereof” (CELLIVERY THERAPEUTICS, INC., priority 2014, dated 2019).)
